Results: patent US20160296498A1, “Ketorolac Sublingual Spray Formulations” (Insys Development Company, Inc., priority 2015, published 2016)

Assay: Room temperature storage of ketorolac formulated at different pH
Format: physicochemical
Conditions: formulated with a pH of less than 5 or greater than 9

## O=C(c1ccccc1)c1ccc2n1CCC2C(=O)O (stereo not shown) [ketorolac, Ketorolac]
  degradation when stored at room temperature: would degrade
